Assay results taken from patent US9585389B2, “Microbicidal composition” (Dow Global Technologies LLC, priority 2013, dated 2017).
Read-outs that look alike come from different tables or passages of the source.

Key:
[1] = Stability Testing of phenoxyethanol/surfactant solutions; format: physicochemical; conditions: 33% phenoxyethanol in 70% isopropanol with surfactant, PE:Surfactant 1:27
Procedure: A solution of phenoxyethanol in 70% (v/v) isopropanol was made and diluted with surfactant to give the desired ratios of biocide to surfactant. Additional 70% isopropanol was added as needed to give a 33 wt % solution of phenoxyethanol. The samples were split into three vials. One vial was stored at room temperature, one was stored at 40 C and one was stored at 50 C. […] Samples that were cloudy or highly discolored were determined to be unstable.

[2] = test system: Staphylococcus aureus ATCC #6538; assay: MIC / synergy index test in 96 well microtiter plates; format: cell-based; conditions: 1/10 TSB; for MIC: Staphylococcus aureus, ATCC6538, 24 h, Phenoxyethanol alone
Procedure: (§1) Surfactants and biocides were evaluated for synergy by determining the synergy index (S.I.) of the combination. Synergy index was calculated based on minimum inhibitory concentrations (MIC) of two antimicrobial compounds (A and B) alone and in combinations. The tests organisms were Gram negative bacteria (Pseudomonas aeruginosa ATCC #15442),
(§2) Gram positive bacteria (Staphylococcus aureus ATCC #6538), yeast (Candida albicans ATCC#10203) and mold (Aspergillus niger ATCC#16404). Contact time for the bacteria was 24 and 48 hours, yeast was 48 and 72 hrs, and 3 and 7 days for mold. The test was carried out in 96 well microtiter plates. • Surf. A R^1O(CH2CH(CH3)o)5(CH2CH2O)9H, where R^1 is 2-ethylhexyl • Surf. D R^2O(CH2CH(CH3)o)3(CH2CH2O)5H • Surf. E R^2O(CH2CH(CH3)o)3(CH2CH2O)7H • In Surf. D and Surf. E, R^2 is a mixture of C8-C14 linear alkyl groups (70% C8-C10 linear alkyl and 30% C12-C14 linear alkyl)
(§3) The pH of the Triptic soy broth was 7.3 and the Potato dextrose broth was 5.1.
(§4) SI is calculated as follows: Ca/CA+Cb/CB=Synergy Index (“SI”)
(§5) Wherein: • CA=concentration of compound A in ppm, acting alone, which produced an end point (MIC of Compound A). • Ca=concentration of compound A in ppm, in the mixture, which produced an end point. • CB=concentration of compound B in ppm, acting alone, which produced an end point (MIC of Compound B). • Cb=concentration of compound B in ppm, in the mixture, which produced an end point. When the sum of Ca/CA and Cb/CB is greater than one, antagonism is indicated.

[3] = test system: Aspergillus niger ATCC#16404; assay: as above; format: cell-based; conditions: ATCC16404, read-out: CB (MIC of compound B alone)
Procedure: as §1, §2, §3, §4, §5

[4] = test system: Candida albicans ATCC#10203; assay: as above; format: cell-based; conditions: ATCC10203, 48 h, read-out: CB (MIC of compound B alone)
Procedure: as §1, §2, §3, §4, §5

[5] = test system: Pseudomonas aeruginosa ATCC #15442; assay: as above; format: cell-based; conditions: 1/10 TSB; for MIC: Pseudomonas aeruginosa, ATCC15442, 24 h, Phenoxyethanol alone, read-out: CB (MIC of compound B alone)
Procedure: as §1, §2, §3, §4, §5

Compound: POLYSORBATE 20
- Stability (appearance) ([1]; Day 2, 40° C.): Slightly
- Stability (appearance) ([1]; Day 2, 50° C.): Slightly
- Stability (appearance) ([1]; Day 7, 40° C.): Slightly
- Stability (appearance) ([1]; Day 7, 50° C.): Slightly

Compound: OCCOc1ccccc1 [Phenoxyethanol, 2-phenoxy-1-ethanol]
- MIC ([2]; series with Surf. A, inoculum 1.156E-+06CFU/ml, read-out: CB (MIC of compound B alone)): 8000 µg/mL
- MIC ([2]; series with Surf. D, inoculum 1.808E+05, read-out: CB (MIC of compound B alone)): 10000 µg/mL
- MIC ([2]; series with Surf. E, inoculum 1.808E+06CFU/ml, read-out: CB (MIC of compound B alone)): 8000 µg/mL
- MIC [3]: 4000 µg/mL
- MIC [4]: 4000 µg/mL
- MIC ([5]; series with Surf. A, inoculum 8.134E+07CFU/ml): 5000 µg/mL
- MIC ([5]; series with Surf. D, inoculum 1.16E+05CFU/ml): 4000 µg/mL
- MIC ([5]; series with Surf. E, inoculum 5.727E+07CFU/ml): 4000 µg/mL

Compound: CCCCC(CC)COCC(C)OCC(C)OCC(C)OCC(C)OCC(C)OCCOCCOCCOCCOCCOCCOCCOCCOCCO (centres unmarked) [Surf. A, R^1O(CH2CH(CH3)o)5(CH2CH2O)9H, where R^1 is 2-ethylhexyl]
- CA (MIC of compound A alone) ([2]; Surf. A alone, 24 hrs, inoculum 1.156E-+06CFU/ml): >20000 ppm
- CA (MIC of compound A alone) ([5]; Surf. A alone, 24 hrs, inoculum 8.134E+07CFU/ml): >20000 ppm
